Activity calls are given as the source filed them. The calls are words filed in the database; no cut-off is given here.
Legend:
[1] = Acute toxicity when administered intraperitoneally in mice; type: organism-based; conditions: mouse, in vivo, ip; read-out: ALD50
[2] = Effect on change in blood pressure in mice; type: functional
Mus musculus [3] = experiment: Effective dose for anorexigenic activity when administered to mice intraperitoneally; no effect; type: functional, organism-based
[4] = Effect on change in blood pressure in […]; no effect; type: functional, organism-based
Mus musculus [5] = experiment: Protection against amphetamine toxicity in mice when administered percutaneously; no effect; type: functional, organism-based
Mus musculus [6] = experiment: Protection against amphetamine toxicity in mice when administered percutaneously; type: functional
Mus musculus [7] = experiment: Effective dose for anorexigenic activity when administered to mice intraperitoneally; type: functional; conditions: ip

| Structure (SMILES) | LD50 [1] | Change in blood pressure [2] | ED50 (Mus musculus [3]) | Change in blood pressure [4] | ED50 (Mus musculus [5]) | ED50 (Mus musculus [6]) | ED50 (Mus musculus [7]) |
| --- | --- | --- | --- | --- | --- | --- | --- |
| Cc1ccc2c(c1)[C@H](O)[C@@H](N)CCO2 | 150 mg/kg | 38 mmHg | inactive | – | – | – | – |
| COc1ccc2c(c1)[C@H](O)[C@@H](N)CCO2 | 150 mg/kg | 40 mmHg | inactive | – | – | – | – |
| COc1cc2c(cc1OC)[C@H](O)[C@H](N)CCC2 | 150 mg/kg | – | – | inactive | inactive | – | – |
| Cc1cc2c(cc1C)[C@H](O)[C@H](N)CCC2 | 150 mg/kg | – | – | inactive | inactive | – | – |
| N[C@@H]1CCCc2ccccc2[C@@H]1O | 150 mg/kg | – | – | inactive | – | 73 mg/kg | – |
| N[C@H]1CCOc2ccccc2[C@@H]1O | 500 mg/kg | 32 mmHg | – | – | – | – | 55 mg/kg |
| N[C@H]1CCCc2ccccc2[C@@H]1O | 150 mg/kg | – | – | inactive | inactive | – | – |
| N[C@@H]1CCCc2cc(O)c(O)cc2[C@@H]1O | 150 mg/kg | – | – | – | inactive | – | – |
| N[C@@H]1CCOc2ccccc2[C@@H]1O | 800 mg/kg | 44 mmHg | – | – | – | – | 75 mg/kg |
| Cc1ccc2c(c1)[C@H](O)[C@H](N)CCO2 | 300 mg/kg | 10 mmHg | inactive | – | – | – | – |
| COc1ccc2c(c1)[C@H](O)[C@H](N)CCO2 | 150 mg/kg | 20 mmHg | inactive | – | – | – | – |

From ChEMBL document CHEMBL1146759, “Chemo- and stereoselective synthesis of benzocycloheptene and 1-benzoxepin derivatives as alpha-sympathomimetic and anorexigenic agents” (Bioorg Med Chem Lett, 2004)
